# Earlier results as cited in US20070071683A1, “Ultrasonic concentration of carrier particles” (The Regents of the University of California, priority 2005, published 2007).
# Test system: tumor
# Settings: paclitaxel alone
smiles,measurement,value
CC(=O)O[C@H]1C(=O)[C@@]2(C)[C@H]([C@H](OC(=O)c3ccccc3)[C@]3(O)C[C@H](OC(=O)[C@H](O)[C@@H](NC(=O)c4ccccc4)c4ccccc4)C(C)=C1C3(C)C)[C@]1(OC(C)=O)CO[C@@H]1C[C@@H]2O [paclitaxel],effect on tumor volume,did not affect tumor volume
